Where two headings read alike, the source gives them in different places.
System: M. bovis BCG
Assay: microbe, parasite or virus in culture
Assay type: cell-based, Mycobacterium bovis BCG
Settings: Mycobacterium tuberculosis variant bovis BCG, BCG, 192 h
[1] = read-out: Antimycobacterial activity % inhibition at 100 μg/ml Aerobic/Active stage
[2] = read-out: Antimycobacterial activity % inhibition at 100 μg/ml Anearobic/Dormant stage

SMILES | inhibition at 100 µg/mL [1] | inhibition at 100 µg/mL [2]
c1ccc(Cn2cc(CSc3ncn[nH]3)nn2)cc1 [1a] | 3% | 4%
Cc1n[nH]c(SCc2cn(Cc3ccccc3)nn2)n1 [1b] | 10% | 14%
CC(C)(C)c1n[nH]c(SCc2cn(Cc3ccccc3)nn2)n1 [1c] | 3% | 11%
Cc1nc(SCc2cn(Cc3ccccc3)nn2)nn1Cc1cn(Cc2ccccc2)nn1 [2b, 1-benzyl-4-((1-((1-benzyl-1H-1,2,3-triazol-4-yl)methyl)-5-methyl-1H-1,2,4-triazol-3-ylthio)methyl)-1H-1,2,3-triazole] | 8% | 12%
CC(C)(C)c1nc(SCc2cn(Cc3ccccc3)nn2)nn1Cc1cn(Cc2ccccc2)nn1 [2c, 1-benzyl-4-((1-((1-benzyl-1H-1,2,3-triazol-4-yl)methyl)-5-tert-butyl-1H-1,2,4-triazol-3-ylthio)methyl)-1H-1,2,3-triazole] | 8% | 15%
COc1ccc(-c2nc(SCc3cn(Cc4ccccc4)nn3)nn2Cc2cn(Cc3ccccc3)nn2)cc1 [2e, 1-benzyl-4-((1-((1-benzyl-1H-1,2,3-triazol-4-yl)methyl)-5-(4-methoxyphenyl)-1H-1,2,4-triazol-3-ylthio)methyl)-1H-1,2,3-triazole] | 1% | 8%
Clc1ccc(-c2nc(SCc3cn(Cc4ccccc4)nn3)nn2Cc2cn(Cc3ccccc3)nn2)cc1 [2f, 1-benzyl-4-((1-((1-benzyl-1H-1,2,3-triazol-4-yl)methyl)-5-(4-chlorophenyl)-1H-1,2,4-triazol-3-ylthio)methyl)-1H-1,2,3-triazole] | 21% | 17%
c1ccc(Cn2cc(CSc3ncnn3Cc3cn(Cc4ccccc4)nn3)nn2)cc1 [3a, 1-benzyl-4-((1-((1-benzyl-1H-1,2,3-triazol-4-yl)methyl)-1H-1,2,4-triazol-5-ylthio)methyl)-1H-1,2,3-triazole] | 8% | 3%
Cc1nc(SCc2cn(Cc3ccccc3)nn2)n(Cc2cn(Cc3ccccc3)nn2)n1 [3b, 1-benzyl-4-((1-((1-benzyl-1H-1,2,3-triazol-4-yl)methyl)-3-methyl-1H-1,2,4-triazol-5-ylthio)methyl)-1H-1,2,3-triazole] | 85% | 76%
CC(C)(C)c1nc(SCc2cn(Cc3ccccc3)nn2)n(Cc2cn(Cc3ccccc3)nn2)n1 [3c, 1-benzyl-4-((1-((1-benzyl-1H-1,2,3-triazol-4-yl)methyl)-3-tert-butyl-1H-1,2,4-triazol-5-ylthio)methyl)-1H-1,2,3-triazole] | 10% | 13%
O=[N+]([O-])c1ccc(-c2nc(SCc3cn(Cc4ccccc4)nn3)n(Cc3cn(Cc4ccccc4)nn3)n2)cc1 [3d, 1-benzyl-4-((1-((1-benzyl-1H-1,2,3-triazol-4-yl)methyl)-3-(4-nitrophenyl)-1H-1,2,4-triazol-5-ylthio)methyl)-1H-1,2,3-triazole] | 13% | 11%
COc1ccc(-c2nc(SCc3cn(Cc4ccccc4)nn3)n(Cc3cn(Cc4ccccc4)nn3)n2)cc1 [3e, 1-benzyl-4-((1-((1-benzyl-1H-1,2,3-triazol-4-yl)methyl)-3-(4-methoxyphenyl)-1H-1,2,4-triazol-5-ylthio)methyl)-1H-1,2,3-triazole] | 86% | 82%
Clc1ccc(-c2nc(SCc3cn(Cc4ccccc4)nn3)n(Cc3cn(Cc4ccccc4)nn3)n2)cc1 [3f, 1-benzyl-4-((1-((1-benzyl-1H-1,2,3-triazol-4-yl)methyl)-3-(4-chlorophenyl)-1H-1,2,4-triazol-5-ylthio)methyl)-1H-1,2,3-triazole] | 31% | 4%
C=CCSc1nc[nH]n1 [4a, 3-allylthio-1H 1,2,4 triazole] | 51% | 32%
C=CCSc1nc(C)n[nH]1 [4b, 3-(allylthio)-5-methyl-1H-1,2,4-triazole] | 98% | 97%
C=CCSc1nc(C(C)(C)C)n[nH]1 [4c, 3-(allylthio)-5-tert-butyl-1H-1,2,4-triazole] | 57% | 39%

SMILES | inhibition at 100 µg/mL [1] | inhibition at 100 µg/mL [2]
C=CCSc1nc(-c2ccc([N+](=O)[O-])cc2)n[nH]1 [4d, 3-(allylthio)-5-(4-nitrophenyl)-1H-1,2,4-triazole] | 25% | 14%
C=CCSc1n[nH]c(-c2ccc(OC)cc2)n1 [4e, 3-(allylthio)-5-(4-methoxyphenyl)-1H-1,2,4-triazole] | 94% | 93%
C=CCSc1ncn(CC=C)n1 [5a, 1-allyl-3-(allylthio)-1H-1,2,4-triazole] | 58% | 42%
C=CCSc1nc(C)n(CC=C)n1 [5b, 1-allyl-3-(allylthio)-5-methyl-1H-1,2,4-triazole] | 25% | 15%
C=CCSc1nc(C(C)(C)C)n(CC=C)n1 [5c, 1-allyl-3-(allylthio)-5-tert-butyl-1H-1,2,4-triazole] | 45% | 36%
C=CCSc1nc(-c2ccc([N+](=O)[O-])cc2)n(CC=C)n1 [5d, 1-allyl-3-(allylthio)-5-(4-nitrophenyl)-1H-1,2,4-triazole] | 15% | 18%
C=CCSc1nc(-c2ccc(OC)cc2)n(CC=C)n1 [5e, 1-allyl-3-(allylthio)-5-(4-methoxyphenyl)-1H-1,2,4-triazole] | 89% | 84%
C=CCSc1nc(-c2ccc(Cl)cc2)n(CC=C)n1 [5f, 1-allyl-3-(allylthio)-5-(4-chlorophenyl)-1H-1,2,4-triazole] | 94% | 91%
C=CCSc1ncnn1CC=C [6a, 1-allyl-5-(allylthio)-1H-1,2,4-triazole] | 65% | 60%
C=CCSc1nc(C)nn1CC=C [6b, 1-allyl-5-(allylthio)-3-methyl-1H-1,2,4-triazole] | 22% | 10%
C=CCSc1nc(C(C)(C)C)nn1CC=C [6c, 1-allyl-5-(allylthio)-3-tert-butyl-1H-1,2,4-triazole] | 30% | 33%
C=CCSc1nc(-c2ccc([N+](=O)[O-])cc2)nn1CC=C [6d, 1-allyl-5-(allylthio)-3-(4-nitrophenyl)-1H-1,2,4-triazole] | 40% | 12%
C=CCSc1nc(-c2ccc(OC)cc2)nn1CC=C [6e, 1-allyl-5-(allylthio)-3-(4-methoxyphenyl)-1H-1,2,4-triazole] | 88% | 83%
C=CCSc1nc(-c2ccc(Cl)cc2)nn1CC=C [6f, 1-allyl-5-(allylthio)-3-(4-chlorophenyl)-1H-1,2,4-triazole] | 26% | 14%
C#CCS(=O)(=O)c1nc[nH]n1 [7a, 5-(prop-2-ynylsulfonyl)-1H-1,2,4-triazole] | 42% | 23%
